Assay results as given in article PMC11212559 (Emerging Microbes & Infections, 2024).

Biological target: E1CTD (Monkeypox virus Zaire-96-I-16, UniProt Q8V4Y7)

SMILES: C[S+](CC[C@H](N)C(=O)O)C[C@H]1O[C@@H](n2cnc3c(N)ncnc32)[C@H](O)[C@@H]1O (stereo partly shown) [SAM]
- no detectable binding ability: the E1CTD also shows no detectable binding ability to SAM
